Data published in ChEMBL document CHEMBL3232964, “Quinone-carbohydrate nonglucoside conjugates as a new type of cytotoxic agents: synthesis and determination of in vitro activity” (Eur J Med Chem, 2014).
pIC50: −log10 of the molar value. Activity calls are given as the source filed them. The rule behind the calls is not given here.

Key:
HeLa [1] = assay: Cytotoxicity against human HeLa cells assessed as inhibition of number of colonies formed in soft agar after 14 days by microscopic analysis; assay type: functional
HeLa [2] = assay: Cytotoxicity against human HeLa cells assessed as cell viability after 48 hrs by MTS assay; assay type: functional, cell-based
[3] = target: Cellular tumor antigen p53 (Mus musculus) (UniProt P02340); assay: Inhibition of p53-dependent transcriptional activity in tumor promotion-sensitive mouse JB6 Cl41 cells after 12 hrs by luciferase-based method; assay type: cell-based
HeLa [4] = assay: Ratio of IC50 to INCC50 for human HeLa cells; assay type: functional
HeLa [5] = assay: Cytotoxicity against human HeLa cells assessed as cell viability after 24 hrs by MTS assay; assay type: functional, cell-based
[6] = Cytotoxicity against tumor promotion-sensitive mouse JB6 Cl41 cells assessed as cell viability after 48 hrs by MTS assay; assay type: cell-based; conditions: JB6 Cl41, 48 h
HeLa [7] = assay: Induction of p53-independent apoptosis in human HeLa cells assessed as viable cells at 2.5 uM after 24 hrs by Annexin-V-FITC/propidium iodide double staining based flow cytometry (reference value: 88.52 +/- 11%); assay type: functional; conditions: read-out: Activity
HeLa [8] = assay: Induction of p53-independent apoptosis in human HeLa cells assessed as late apoptotic/necrotic cells at 2.5 uM after 24 hrs by Annexin-V-FITC/propidium iodide double staining based flow cytometry (reference value: 0.88 +/- 0.72%); assay type: functional
HeLa [9] = assay: Induction of p53-independent apoptosis in human HeLa cells assessed as late apoptotic/necrotic cells at 5 uM after 24 hrs by Annexin-V-FITC/propidium iodide double staining based flow cytometry (reference value: 0.88 +/- 0.72%); assay type: functional
HeLa [10] = assay: Induction of p53-independent apoptosis in human HeLa cells assessed as viable cells at 5 uM after 24 hrs by Annexin-V-FITC/propidium iodide double staining based flow cytometry (reference value: 88.52 +/- 11%); assay type: functional; conditions: read-out: Activity
[11] = Induction of apoptosis in tumor promotion-sensitive mouse JB6 Cl41 cells assessed as late apoptotic/necrotic cells at 10 uM after 24 hrs by Annexin-V-FITC/propidium iodide staining based flow cytometry (reference value: 0.53 +/- 0.47%); assay type: cell-based; conditions: jb6 cl41, 24 h
[12] = Induction of apoptosis in tumor promotion-sensitive mouse JB6 Cl41 cells assessed as dead cells at 10 uM after 24 hrs by Annexin-V-FITC/propidium iodide staining based flow cytometry (reference value: 2.99 +/- 0.82%); assay type: cell-based; conditions: jb6 cl41, 24 h
[13] = Induction of apoptosis in tumor promotion-sensitive mouse JB6 Cl41 cells assessed as dead cells at 2.5 uM after 24 hrs by Annexin-V-FITC/propidium iodide staining based flow cytometry (reference value: 2.99 +/- 0.82%); assay type: cell-based; conditions: jb6 cl41, 24 h
[14] = Induction of apoptosis in tumor promotion-sensitive mouse JB6 Cl41 cells assessed as late apoptotic/necrotic cells at 5 uM after 24 hrs by Annexin-V-FITC/propidium iodide staining based flow cytometry (reference value: 0.53 +/- 0.47%); assay type: cell-based; conditions: jb6 cl41, 24 h
[15] = Induction of apoptosis in tumor promotion-sensitive mouse JB6 Cl41 cells assessed as late apoptotic/necrotic cells at 2.5 uM after 24 hrs by Annexin-V-FITC/propidium iodide staining based flow cytometry (reference value: 0.53 +/- 0.47%); assay type: cell-based; conditions: jb6 cl41, 24 h
[16] = Induction of apoptosis in tumor promotion-sensitive mouse JB6 Cl41 cells assessed as early apoptotic cells at 2.5 uM after 24 hrs by Annexin-V-FITC/propidium iodide staining based flow cytometry (reference value: 2.15 +/- 1.18%); assay type: cell-based; conditions: jb6 cl41, 24 h
HeLa [17] = assay: Induction of p53-independent apoptosis in human HeLa cells assessed as early apoptotic cells at 5 uM after 24 hrs by Annexin-V-FITC/propidium iodide double staining based flow cytometry (reference value: 6.71 +/- 4.41%); assay type: functional
HeLa [18] = assay: Induction of p53-independent apoptosis in human HeLa cells assessed as early apoptotic cells at 10 uM after 24 hrs by Annexin-V-FITC/propidium iodide double staining based flow cytometry (reference value: 6.71 +/- 4.41%); assay type: functional
HeLa [19] = assay: Induction of p53-independent apoptosis in human HeLa cells assessed as dead cells at 2.5 uM after 24 hrs by Annexin-V-FITC/propidium iodide double staining based flow cytometry (reference value: 3.89 +/- 0.3%); assay type: functional
[20] = Induction of apoptosis in tumor promotion-sensitive mouse JB6 Cl41 cells assessed as dead cells at 5 uM after 24 hrs by Annexin-V-FITC/propidium iodide staining based flow cytometry (reference value: 2.99 +/- 0.82%); assay type: cell-based; conditions: jb6 cl41, 24 h
[21] = Induction of apoptosis in tumor promotion-sensitive mouse JB6 Cl41 cells assessed as early apoptotic cells at 10 uM after 24 hrs by Annexin-V-FITC/propidium iodide staining based flow cytometry (reference value: 2.15 +/- 1.18%); assay type: cell-based; conditions: jb6 cl41, 24 h
[22] = Induction of apoptosis in tumor promotion-sensitive mouse JB6 Cl41 cells assessed as viable cells at 2.5 uM after 24 hrs by Annexin-V-FITC/propidium iodide staining based flow cytometry (reference value: 94.33 +/- 0.87%); assay type: cell-based; conditions: read-out: Activity
[23] = Induction of apoptosis in tumor promotion-sensitive mouse JB6 Cl41 cells assessed as viable cells at 10 uM after 24 hrs by Annexin-V-FITC/propidium iodide staining based flow cytometry (reference value: 94.33 +/- 0.87%); assay type: cell-based; conditions: read-out: Activity
[24] = Induction of apoptosis in tumor promotion-sensitive mouse JB6 Cl41 cells assessed as viable cells at 5 uM after 24 hrs by Annexin-V-FITC/propidium iodide staining based flow cytometry (reference value: 94.33 +/- 0.87%); assay type: cell-based; conditions: read-out: Activity
HeLa [25] = assay: Induction of p53-independent apoptosis in human HeLa cells assessed as dead cells at 5 uM after 24 hrs by Annexin-V-FITC/propidium iodide double staining based flow cytometry (reference value: 3.89 +/- 0.3%); assay type: functional
HeLa [26] = assay: Induction of p53-independent apoptosis in human HeLa cells assessed as late apoptotic/necrotic cells at 10 uM after 24 hrs by Annexin-V-FITC/propidium iodide double staining based flow cytometry (reference value: 0.88 +/- 0.72%); assay type: functional
HeLa [27] = assay: Induction of p53-independent apoptosis in human HeLa cells assessed as early apoptotic cells at 2.5 uM after 24 hrs by Annexin-V-FITC/propidium iodide double staining based flow cytometry (reference value: 6.71 +/- 4.41%); assay type: functional
HeLa [28] = assay: Induction of p53-independent apoptosis in human HeLa cells assessed as dead cells at 10 uM after 24 hrs by Annexin-V-FITC/propidium iodide double staining based flow cytometry (reference value: 3.89 +/- 0.3%); assay type: functional
HeLa [29] = assay: Induction of p53-independent apoptosis in human HeLa cells assessed as viable cells at 10 uM after 24 hrs by Annexin-V-FITC/propidium iodide double staining based flow cytometry (reference value: 88.52 +/- 11%); assay type: functional; conditions: read-out: Activity
[30] = Induction of apoptosis in tumor promotion-sensitive mouse JB6 Cl41 cells assessed as early apoptotic cells at 5 uM after 24 hrs by Annexin-V-FITC/propidium iodide staining based flow cytometry (reference value: 2.15 +/- 1.18%); assay type: cell-based; conditions: jb6 cl41, 24 h
[31] = Induction of apoptosis in tumor promotion-sensitive mouse JB6 Cl41 cells assessed as late apoptotic/necrotic cells at 20 uM after 24 hrs by Annexin-V-FITC/propidium iodide staining based flow cytometry (reference value: 0.53 +/- 0.47%); assay type: cell-based; conditions: jb6 cl41, 24 h
HeLa [32] = assay: Induction of p53-independent apoptosis in human HeLa cells assessed as viable cells at 20 uM after 24 hrs by Annexin-V-FITC/propidium iodide double staining based flow cytometry (reference value: 88.52 +/- 11%); assay type: functional; conditions: read-out: Activity
[33] = Induction of apoptosis in tumor promotion-sensitive mouse JB6 Cl41 cells assessed as early apoptotic cells at 20 uM after 24 hrs by Annexin-V-FITC/propidium iodide staining based flow cytometry (reference value: 2.15 +/- 1.18%); assay type: cell-based; conditions: jb6 cl41, 24 h
[34] = Induction of apoptosis in tumor promotion-sensitive mouse JB6 Cl41 cells assessed as viable cells at 20 uM after 24 hrs by Annexin-V-FITC/propidium iodide staining based flow cytometry (reference value: 94.33 +/- 0.87%); assay type: cell-based; conditions: read-out: Activity
[35] = Induction of apoptosis in tumor promotion-sensitive mouse JB6 Cl41 cells assessed as dead cells at 20 uM after 24 hrs by Annexin-V-FITC/propidium iodide staining based flow cytometry (reference value: 2.99 +/- 0.82%); assay type: cell-based; conditions: jb6 cl41, 24 h
HeLa [36] = assay: Induction of p53-independent apoptosis in human HeLa cells assessed as dead cells at 20 uM after 24 hrs by Annexin-V-FITC/propidium iodide double staining based flow cytometry (reference value: 3.89 +/- 0.3%); assay type: functional
HeLa [37] = assay: Induction of p53-independent apoptosis in human HeLa cells assessed as late apoptotic/necrotic cells at 20 uM after 24 hrs by Annexin-V-FITC/propidium iodide double staining based flow cytometry (reference value: 0.88 +/- 0.72%); assay type: functional
HeLa [38] = assay: Induction of p53-independent apoptosis in human HeLa cells assessed as early apoptotic cells at 20 uM after 24 hrs by Annexin-V-FITC/propidium iodide double staining based flow cytometry (reference value: 6.71 +/- 4.41%); assay type: functional

Cellular tumor antigen p53 (Mus musculus), sequence (P02340 whole entry): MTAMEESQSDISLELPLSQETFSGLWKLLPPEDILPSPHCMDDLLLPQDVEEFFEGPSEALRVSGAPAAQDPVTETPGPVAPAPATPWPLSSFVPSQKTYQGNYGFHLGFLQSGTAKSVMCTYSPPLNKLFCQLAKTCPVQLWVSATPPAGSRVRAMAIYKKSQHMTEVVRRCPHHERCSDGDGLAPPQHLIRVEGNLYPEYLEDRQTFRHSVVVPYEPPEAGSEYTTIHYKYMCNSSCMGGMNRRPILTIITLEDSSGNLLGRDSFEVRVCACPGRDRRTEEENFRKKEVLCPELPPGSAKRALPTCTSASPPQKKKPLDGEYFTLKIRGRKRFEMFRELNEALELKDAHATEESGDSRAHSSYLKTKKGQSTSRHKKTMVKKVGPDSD

| SMILES | INCC50 (HeLa [1]) [µM] | pIC50 (HeLa [2]) | inhibition [3] | Ratio (HeLa [4]) | pIC50 (HeLa [5]) | pIC50 [6] | viability at 2.5 µM (HeLa [7]) [%] | Activity (HeLa [8]) [%] | Activity (HeLa [9]) [%] | viability at 5 µM (HeLa [10]) [%] | Activity [11] [%] | Activity [12] [%] | Activity [13] [%] | Activity [14] [%] | Activity [15] [%] | Activity [16] [%] | Activity (HeLa [17]) [%] | Activity (HeLa [18]) [%] | Activity (HeLa [19]) [%] | Activity [20] [%] | also measured |
| --- | --- | --- | --- | --- | --- | --- | --- | --- | --- | --- | --- | --- | --- | --- | --- | --- | --- | --- | --- | --- | --- |
| COC1=CC(=O)c2c(O)ccc(O)c2C1=O | 0.73 | 5.67 | Active | 2.97 | 5.74 | 5.60 | – | – | – | – | – | – | – | – | – | – | – | – | – | – | – |
| COC1=CC(=O)c2cccc(O)c2C1=O | 0.61 | 5.98 | Active | 1.7 | 6.02 | 5.83 | – | – | – | – | – | – | – | – | – | – | – | – | – | – | – |
| CO[C@H]1O[C@H](COC2=CC(=O)c3c(O)cccc3C2=O)[C@@H](O)[C@H](O)[C@H]1O | 1.68 | 5.28 | Active | 3.11 | 5.28 | 5.18 | 84.7 | 1.44 | 1.38 | 82.8 | 2.01 | 1.76 | 2.35 | 1.93 | 0.62 | 2.77 | 13.09 | 32.33 | 3.47 | 3.36 | Activity [21]: 82.93%; viability at 24 h, 2.5 µM [22]: 94.3%; viability at 24 h, 10 µM [23]: 13.3%; viability at 24 h, 5 µM [24]: 79.4%; Activity (HeLa [25]): 2.73%; Activity (HeLa [26]): 26.07%; Activity (HeLa [27]): 10.42%; Activity (HeLa [28]): 21.48%; viability at 10 µM (HeLa [29]): 20.1%; Activity [30]: 15.33% |
| O=C1C=C(O)C(=O)c2c(O)ccc(O)c21 | 8.06 | 4.42 | Active | 4.71 | 4.37 | 4.15 | – | – | – | – | – | – | – | – | – | – | – | – | – | – | – |
| CO[C@H]1O[C@H](COC2=CC(=O)c3c(O)ccc(O)c3C2=O)[C@@H](O)[C@H](O)[C@H]1O | 4.03 | 5.10 | Active | 1.96 | 5.12 | 5.07 | 87.4 | 1.55 | 1.35 | 89.5 | 1.91 | 3.17 | 2.99 | 2.96 | 2.46 | 1.84 | 6.44 | 7.99 | 2.8 | 0.4 | Activity [31]: 13.91%; viability at 20 µM (HeLa [32]): 30.1%; Activity [33]: 40.96%; viability at 24 h, 20 µM [34]: 13.4%; Activity [35]: 31.75%; Activity (HeLa [36]): 31.42%; Activity (HeLa [37]): 24.44%; Activity [21]: 7.41%; viability at 24 h, 2.5 µM [22]: 91.7%; viability at 24 h, 10 µM [23]: 87.5%; viability at 24 h, 5 µM [24]: 88.8%; Activity (HeLa [25]): 2.67%; Activity (HeLa [26]): 1.74%; Activity (HeLa [27]): 8.28%; Activity (HeLa [28]): 2.77%; Activity (HeLa [38]): 14.06%; viability at 10 µM (HeLa [29]): 87.5%; Activity [30]: 1.8% |
